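Protocol summary: plate cells (96-well), add compound at 5 concentrations, incubate 48 h, interpolate endpoints linearly. Abbreviation: GI50, concentration required for 50% inhibition of growth. TGI marks complete inhibition of growth.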
How the values were obtained:
Assay in all cases: growth of human tumour cells (NCI), 48 h; in the data active means GI50 below about 0.43 µM; inactive means the rest
MDA-MB-435 = tested on: MDA-MB-435
SR leukemia = tested on: SR leukemia
SW-620 colon = tested on: SW-620 colon
NCI-H226 lung = tested on: NCI-H226 lung
RXF 393 renal = tested on: RXF 393 renal
KM12 colon = tested on: KM12 colon
CCRF-CEM leukemia = tested on: CCRF-CEM leukemia
OVCAR-4 ovarian = tested on: OVCAR-4 ovarian
TK-10 renal = tested on: TK-10 renal
NCI/ADR-RES ovarian = tested on: NCI/ADR-RES ovarian
MOLT-4 leukemia = tested on: MOLT-4 leukemia
UO-31 renal = tested on: UO-31 renal
HL-60(TB) leukemia = tested on: HL-60(TB) leukemia
PC-3 prostate = tested on: PC-3 prostate
HS 578T breast = tested on: HS 578T breast
HCC-2998 colon = tested on: HCC-2998 colon
SK-MEL-5 melanoma = tested on: SK-MEL-5 melanoma
SNB-19 CNS = tested on: SNB-19 CNS
ACHN renal = tested on: ACHN renal
SN12C renal = tested on: SN12C renal
SF-539 CNS = tested on: SF-539 CNS
NCI-H460 lung = tested on: NCI-H460 lung
NCI-H23 lung = tested on: NCI-H23 lung
DU-145 prostate = tested on: DU-145 prostate
CAKI-1 renal = tested on: CAKI-1 renal
786-0 renal = tested on: 786-0 renal
HOP-62 NSCLC = tested on: HOP-62 NSCLC
EKVX NSCLC = tested on: EKVX NSCLC
OVCAR-3 ovarian = tested on: OVCAR-3 ovarian
HOP-92 NSCLC = tested on: HOP-92 NSCLC
A498 renal = tested on: A498 renal
LOX IMVI melanoma = tested on: LOX IMVI melanoma
SF-295 CNS = tested on: SF-295 CNS
M14 melanoma = tested on: M14 melanoma
HCT-15 colon = tested on: HCT-15 colon
NCI-H522 lung = tested on: NCI-H522 lung
K-562 leukemia = tested on: K-562 leukemia
UACC-62 melanoma = tested on: UACC-62 melanoma
U251 CNS = tested on: U251 CNS
SF-268 CNS = tested on: SF-268 CNS
SK-MEL-2 melanoma = tested on: SK-MEL-2 melanoma
MALME-3M melanoma = tested on: MALME-3M melanoma
HT29 colon = tested on: HT29 colon
SK-MEL-28 melanoma = tested on: SK-MEL-28 melanoma
COLO 205 colon = tested on: COLO 205 colon
MCF7 breast = tested on: MCF7 breast
MDA-MB-231 breast = tested on: MDA-MB-231 breast
OVCAR-8 ovarian = tested on: OVCAR-8 ovarian
RPMI-8226 leukemia = tested on: RPMI-8226 leukemia
SK-OV-3 ovarian = tested on: SK-OV-3 ovarian
A549 NSCLC = tested on: A549 NSCLC
IGROV1 ovarian = tested on: IGROV1 ovarian
BT-549 breast = tested on: BT-549 breast
HCT-116 colon = tested on: HCT-116 colon
OVCAR-5 ovarian = tested on: OVCAR-5 ovarian
SNB-75 CNS = tested on: SNB-75 CNS
UACC-257 melanoma = tested on: UACC-257 melanoma

C/C1=C/C(=O)O[C@@H]2C[C@@H](CC[C@H](C)/C=C\C=C\CC1)O[C@@](OCCc1ccccc1)([C@@H]1CSC(=O)N1)C2
inactive: GI50 (SW-620 colon) 7.04 µM | GI50 (KM12 colon) 6.19 µM | GI50 (NCI/ADR-RES ovarian) 2.95 µM | GI50 (MOLT-4 leukemia) > 5.2 µM | GI50 (HL-60(TB) leukemia) 1.31 µM | GI50 (HCC-2998 colon) 6 µM | GI50 (K-562 leukemia) 0.954 µM | GI50 (SK-MEL-2 melanoma) 0.917 µM | GI50 (MCF7 breast) 5.37 µM | GI50 (OVCAR-8 ovarian) 1.11 µM | GI50 (RPMI-8226 leukemia) 3.28 µM
> 13.8 µM: TGI (SK-MEL-2 melanoma)
0.401 µM: TGI (COLO 205 colon)
0.0597 µM: TGI (SNB-75 CNS)
2.47 µM: TGI (NCI-H522 lung)
> 6.42 µM: TGI (SK-MEL-5 melanoma)
0.943 µM: TGI (MALME-3M melanoma)
0.0811 µM: TGI (CAKI-1 renal)
6.12 µM: TGI (MDA-MB-435)
> 15 µM: TGI (HT29 colon)
0.0661 µM: TGI (HOP-92 NSCLC)
0.995 µM: TGI (SK-MEL-28 melanoma)
0.607 µM: TGI (OVCAR-3 ovarian)
17.3 µM: TGI (UACC-257 melanoma)
> 17.5 µM: TGI (SR leukemia) | TGI (SW-620 colon) | TGI (NCI-H226 lung) | TGI (KM12 colon) | TGI (CCRF-CEM leukemia) | TGI (NCI/ADR-RES ovarian) | TGI (MOLT-4 leukemia) | TGI (HL-60(TB) leukemia) | TGI (PC-3 prostate) | TGI (HCC-2998 colon) | TGI (SNB-19 CNS) | TGI (ACHN renal) | TGI (SN12C renal) | TGI (SF-539 CNS) | TGI (NCI-H460 lung) | TGI (NCI-H23 lung) | TGI (DU-145 prostate) | TGI (786-0 renal) | TGI (HOP-62 NSCLC) | TGI (EKVX NSCLC) | TGI (M14 melanoma) | TGI (HCT-15 colon) | TGI (K-562 leukemia) | TGI (UACC-62 melanoma) | TGI (U251 CNS) | TGI (MCF7 breast) | TGI (MDA-MB-231 breast) | TGI (OVCAR-8 ovarian) | TGI (RPMI-8226 leukemia) | TGI (A549 NSCLC) | TGI (HCT-116 colon) | TGI (OVCAR-5 ovarian)
> 5.4 µM: TGI (SK-OV-3 ovarian)
0.173 µM: TGI (UO-31 renal)
0.287 µM: TGI (TK-10 renal)
0.133 µM: TGI (A498 renal)
> 5.44 µM: TGI (OVCAR-4 ovarian)
active: GI50 (MDA-MB-435) 0.324 µM | GI50 (SR leukemia) 0.379 µM | GI50 (NCI-H226 lung) 0.0985 µM | GI50 (RXF 393 renal) 0.0363 µM | GI50 (CCRF-CEM leukemia) 0.282 µM | GI50 (OVCAR-4 ovarian) 0.225 µM | GI50 (TK-10 renal) 0.0895 µM | GI50 (UO-31 renal) 0.0386 µM | GI50 (PC-3 prostate) 0.0754 µM | GI50 (HS 578T breast) 0.028 µM | GI50 (SK-MEL-5 melanoma) 0.226 µM | GI50 (SNB-19 CNS) 0.12 µM | GI50 (ACHN renal) 0.0501 µM | GI50 (SN12C renal) 0.0787 µM | GI50 (SF-539 CNS) 0.0543 µM | GI50 (NCI-H460 lung) 0.27 µM | GI50 (NCI-H23 lung) 0.142 µM | GI50 (DU-145 prostate) 0.282 µM | GI50 (CAKI-1 renal) 0.0222 µM | GI50 (786-0 renal) 0.107 µM | GI50 (HOP-62 NSCLC) 0.0777 µM | GI50 (EKVX NSCLC) 0.106 µM | GI50 (OVCAR-3 ovarian) 0.17 µM | GI50 (HOP-92 NSCLC) 0.0119 µM | GI50 (A498 renal) 0.0313 µM | GI50 (LOX IMVI melanoma) 0.0316 µM | GI50 (SF-295 CNS) 0.0383 µM | GI50 (M14 melanoma) 0.204 µM | GI50 (HCT-15 colon) 0.09 µM | GI50 (NCI-H522 lung) 0.0581 µM | GI50 (UACC-62 melanoma) 0.104 µM | GI50 (U251 CNS) 0.189 µM | GI50 (SF-268 CNS) 0.0784 µM | GI50 (MALME-3M melanoma) 0.0694 µM | GI50 (HT29 colon) 0.0793 µM | GI50 (SK-MEL-28 melanoma) 0.218 µM | GI50 (COLO 205 colon) 0.0845 µM | GI50 (MDA-MB-231 breast) 0.0949 µM | GI50 (SK-OV-3 ovarian) 0.116 µM | GI50 (A549 NSCLC) 0.0754 µM | GI50 (IGROV1 ovarian) 0.0275 µM | GI50 (BT-549 breast) 0.0404 µM | GI50 (HCT-116 colon) 0.225 µM | GI50 (OVCAR-5 ovarian) 0.0554 µM | GI50 (SNB-75 CNS) 0.022 µM | GI50 (UACC-257 melanoma) 0.175 µM
0.0973 µM: TGI (HS 578T breast)
> 4.55 µM: TGI (SF-295 CNS)
0.113 µM: TGI (BT-549 breast)
0.158 µM: TGI (RXF 393 renal)
0.074 µM: TGI (IGROV1 ovarian)
0.377 µM: TGI (SF-268 CNS)

— PubChem BioAssay (NCI)
